For 20 molecules, EC50 results are on record in patent US10351546B2, “Pyridin-3-yl acetic acid derivatives as inhibitors of human immunodeficiency virus replication” (priority 2015, dated 2019).

For one assay, the system named is NL-RLuc virus. The assay is described as follows: Inhibition of HIV replication (NL-RLuc luciferase reporter virus in MT-2 cells). The assay is classed as cell-based. To be noted: Human immunodeficiency virus 1, MT2, 120 h, read-out: Activity. An excerpt: Inhibition of HIV replication: A recombinant NL-RLuc proviral clone was constructed in which a section of the nef gene form NL4-3 was replaced with the Renilla Luciferase gene. This virus is fully infectious and can undergo multiple cycles of replication in cell culture. In addition, the luciferous reporter provides a simple and easy method for quantitating the extent of virus growth and consequently, the antiviral activity of test compounds. The plasmid pNLRLuc contains the proviral NL-Rluc DNA cloned into pUC18 at the PvuII site. The NL-RLuc virus was prepared by transfection of 293T cells with the plasmid pNLRLuc. Transfections were performed using the LipofectAMINE PLUS kit form Invitrogen (Carlsbad, Calif.) according to the manufacturer and the virus generated was titered in MT-2 cells. For susceptibility analyses, the titrated virus was used to infect MT-2 cells in the presence of compound, and after 5 days of incubation, cells were processed and quantitated for virus growth by the amount of expressed luciferase. Assay media was RPMI 1640 supplemented with 10% heat inactivated fetal bovine serum (FBS), 100 units/ml penicillin G/100 units/ml streptomycin, 10 mM HEPES buffer pH 7.55 and 2 mM L-glutamine. The results form at least 2 experiments were used to calculate the EC50 values. Luciferase was quantitated using the Dual Luciferase kit form Promega (Madison, Wis.). Susceptibility of viruses to compounds was determined by incubation in the presence of serial dilutions of the compound. The 50% effective concentration (EC50) was calculated by using the exponential form of the median effect equation where (Fa)=1/[1+(ED50/drug conc.)^m](Johnson V A, Byington R T. Infectivity Assay. In Techniques in HIV Research. ed. Aldovini A, Walker B D. 71-76. New York: Stockton Press. 1990). Activity equal to A refers to a compound having an EC50≤100 nM, while B and C denote compounds having an EC50 between 100 nM and 1 uM (B) or >1 uM (C).
A general note: In a reporter assay the amount or activity of a reporter protein is the signal.
With `Cc1cc(N2CCc3cc(-c4c(N)nc(C)c([C@H](OC(C)(C)C)C(=O)O)c4N4CCC(C)(C)CC4)ccc3C2)ncn1` [Example 148, (S)-2-(6-Amino-4-(4,4-dimethylpiperidin-1-yl)-2-methyl-5-(2-(6-methylpyrimidin-4-yl)-1,2,3,4-tetrahydroisoquinolin-6-yl)pyridin-3-yl)-2-(tert-butoxy)acetic acid], the EC50 is below 0.1 µM.
Same read-out and setting: under `CCN(CC)CCOCc1nc(C)c([C@H](OC(C)(C)C)C(=O)O)c(N2CCC(C)(C)CC2)c1-c1ccc(OCCc2ccc(F)cc2)cc1` [Example 23, (S)-2-(tert-Butoxy)-2-(6-((2-(diethylamino)ethoxy)methyl)-4-(4,4-dimethylpiperidin-1-yl)-5-(4-(4-fluorophenethoxy)phenyl)-2-methylpyridin-3-yl)acetic acid] stands below 0.1 µM.
On to `Cc1nc(CCCN(C)C)c(-c2ccc(OCCc3ccc(F)cc3)cc2)c(N2CCC(C)(C)CC2)c1[C@H](OC(C)(C)C)C(=O)O` [Example 59, (S)-2-(tert-Butoxy)-2-(6-(3-(dimethylamino)propyl)-4-(4,4-dimethylpiperidin-1-yl)-5-(4-(4-fluorophenethoxy)phenyl)-2-methylpyridin-3-yl)acetic acid], for which the EC50 was below 0.1 µM.
Still for that read-out and setting: under `Cc1cccc(Cl)c1CN1CCc2cc(-c3c(CN4CCC4)nc(C)c([C@H](OC(C)(C)C)C(=O)O)c3N3CCC(C)(C)CC3)ccc2C1` [Example 175, (S)-2-(6-(Azetidin-1-ylmethyl)-5-(2-(2-chloro-6-methylbenzyl)-1,2,3,4-tetrahydroisoquinolin-6-yl)-4-(4,4-dimethylpiperidin-1-yl)-2-methylpyridin-3-yl)-2-(tert-butoxy)acetic acid] stands below 0.1 µM; under `Cc1nc(CF)c(-c2ccc(OCCc3ccc(F)cc3)cc2)c(N2CCC(C)(C)CC2)c1[C@H](OC(C)(C)C)C(=O)O` [Example 5, (S)-2-(tert-Butoxy)-2-(4-(4,4-dimethylpiperidin-1-yl)-6-(fluoromethyl)-5-(4-(4-fluorophenethoxy)phenyl)-2-methylpyridin-3-yl)acetic acid], below 0.1 µM.
Take `Cc1nc(CN2CCC3(CCC3)CC2)c(-c2ccc(OCCc3ccc(F)cc3)cc2)c(N2CCC(C)(C)CC2)c1[C@H](OC(C)(C)C)C(=O)O` [Example 82, (S)-2-(6-(7-Azaspiro[3.5]nonan-7-ylmethyl)-4-(4,4-dimethylpiperidin-1-yl)-5-(4-(4-fluorophenethoxy)phenyl)-2-methylpyridin-3-yl)-2-(tert-butoxy)acetic acid]: the EC50 is below 0.1 µM.
For the molecule `Cc1nc(CN(C)C)c([C@H](OC(C)(C)C)C(=O)O)c(N2CCC(C)(C)CC2)c1-c1ccc(OCCc2ccc(F)cc2)cc1` [Example 112, (S)-2-(tert-Butoxy)-2-(2-((dimethylamino)methyl)-4-(4,4-dimethylpiperidin-1-yl)-5-(4-(4-fluorophenethoxy)phenyl)-6-methylpyridin-3-yl)acetic acid], the EC50 was below 0.1 µM.
As for `Cc1nc(CN2CCC(O)CC2)c(-c2ccc(OCCc3ccc(F)cc3)cc2)c(N2CCC(C)(C)CC2)c1[C@H](OC(C)(C)C)C(=O)O` [Example 87, (S)-2-(tert-Butoxy)-2-(4-(4,4-dimethylpiperidin-1-yl)-5-(4-(4-fluorophenethoxy)phenyl)-6-((4-hydroxypiperidin-1-yl)methyl)-2-methylpyridin-3-yl)acetic acid], the EC50 was below 0.1 µM.
Still for that read-out and setting: under `Cc1nc(CN2CCCc3ccccc32)c(-c2ccc(OCCc3ccc(F)cc3)cc2)c(N2CCC(C)(C)CC2)c1[C@H](OC(C)(C)C)C(=O)O` [Example 89, (S)-2-(tert-Butoxy)-2-(6-((3,4-dihydroquinolin-1(2H)-yl)methyl)-4-(4,4-dimethylpiperidin-1-yl)-5-(4-(4-fluorophenethoxy)phenyl)-2-methylpyridin-3-yl)acetic acid] stands below 0.1 µM; under `Cc1nc(COCC2CNC2)c(-c2ccc(OCCc3ccc(F)cc3)cc2)c(N2CCC(C)(C)CC2)c1[C@H](OC(C)(C)C)C(=O)O` [Example 22, (S)-2-(6-((Azetidin-3-ylmethoxy)methyl)-4-(4,4-dimethylpiperidin-1-yl)-5-(4-(4-fluorophenethoxy)phenyl)-2-methylpyridin-3-yl)-2-(tert-butoxy)acetic acid], below 0.1 µM; under `Cc1cc(C)n(COCc2nc(C)c([C@H](OC(C)(C)C)C(=O)O)c(N3CCC(C)(C)CC3)c2-c2ccc(OCCc3ccc(F)cc3)cc2)n1` [Example 25, (S)-2-(tert-Butoxy)-2-(6-(((3,5-dimethyl-1H-pyrazol-1-yl)methoxy)methyl)-4-(4,4-dimethylpiperidin-1-yl)-5-(4-(4-fluorophenethoxy)phenyl)-2-methylpyridin-3-yl)acetic acid], below 0.1 µM.
As to `Cc1nc(CNC(C)C)c(-c2ccc(OCCc3ccc(F)cc3)cc2)c(N2CCC(C)(C)CC2)c1[C@H](OC(C)(C)C)C(=O)O` [Example 66, (S)-2-(tert-Butoxy)-2-(4-(4,4-dimethylpiperidin-1-yl)-5-(4-(4-fluorophenethoxy)phenyl)-6-((isopropylamino)methyl)-2-methylpyridin-3-yl)acetic acid], the EC50 was below 0.1 µM.
As to `Cc1cc(F)ccc1CN1CCc2cc(-c3c(CN4CCOCC4)nc(C)c([C@H](OC(C)(C)C)C(=O)O)c3N3CCC(C)(C)CC3)ccc2C1` [Example 121, (S)-2-(tert-Butoxy)-2-(4-(4,4-dimethylpiperidin-1-yl)-5-(2-(4-fluoro-2-methylbenzyl)-1,2,3,4-tetrahydroisoquinolin-6-yl)-2-methyl-6-(morpholinomethyl)pyridin-3-yl)acetic acid], the EC50 is below 0.1 µM.
Still for that read-out and setting: under `Cc1nc(C(=O)N(C)CC2CCCCC2)c(-c2ccc(OCCc3ccc(F)cc3)cc2)c(N2CCC(C)(C)CC2)c1[C@H](OC(C)(C)C)C(=O)O` [Example 42, (S)-2-(tert-Butoxy)-2-(6-((cyclohexylmethyl)(methyl)carbamoyl)-4-(4,4-dimethylpiperidin-1-yl)-5-(4-(4-fluorophenethoxy)phenyl)-2-methylpyridin-3-yl)acetic acid] stands below 0.1 µM; under `Cc1nc(CC2=CCCCC2)c(-c2ccc(OCCc3ccc(F)cc3)cc2)c(N2CCC(C)(C)CC2)c1[C@H](OC(C)(C)C)C(=O)O` [Example 171, (S)-2-(tert-Butoxy)-2-(6-(cyclohex-1-en-1-ylmethyl)-4-(4,4-dimethylpiperidin-1-yl)-5-(4-(4-fluorophenethoxy)phenyl)-2-methylpyridin-3-yl)acetic acid], below 0.1 µM.
`Cc1nc(CO)c(-c2ccc3c(c2)CCN(c2ncnc4c2oc2ccccc24)C3)c(N2CCC(C)(C)CC2)c1[C@H](OC(C)(C)C)C(=O)O` [Example 168, (S)-2-(5-(2-(Benzofuro[3,2-d]pyrimidin-4-yl)-1,2,3,4-tetrahydroisoquinolin-6-yl)-4-(4,4-dimethylpiperidin-1-yl)-6-(hydroxymethyl)-2-methylpyridin-3-yl)-2-(tert-butoxy)acetic acid]: the EC50 is below 0.1 µM.
Still for that read-out and setting: the value for `Cc1cc(F)ccc1CN1CCc2cc(-c3c(CN4CCC(F)(F)CC4)nc(C)c([C@H](OC(C)(C)C)C(=O)O)c3N3CCC(C)(C)CC3)ccc2C1` [Example 128, (S)-2-(tert-Butoxy)-2-(6-((4,4-difluoropiperidin-1-yl)methyl)-4-(4,4-dimethylpiperidin-1-yl)-5-(2-(4-fluoro-2-methylbenzyl)-1,2,3,4-tetrahydroisoquinolin-6-yl)-2-methylpyridin-3-yl)acetic acid] was below 0.1 µM; that for `Cc1cccc(Cl)c1CN1CCc2cc(-c3c(C#N)nc(C)c([C@H](OC(C)(C)C)C(=O)O)c3N3CCC(C)(C)CC3)ccc2C1` [Example 166, (S)-2-(tert-butoxy)-2-(5-(2-(2-chloro-6-methylbenzyl)-1,2,3,4-tetrahydroisoquinolin-6-yl)-6-cyano-4-(4,4-dimethylpiperidin-1-yl)-2-methylpyridin-3-yl)acetic acid] was below 0.1 µM.
Still for that read-out and setting: the value for `COCCc1nc(C)c([C@H](OC(C)(C)C)C(=O)O)c(N2CCC(C)(C)CC2)c1-c1ccc(OCCc2ccc(F)cc2)cc1` [Example 58, (S)-2-(tert-butoxy)-2-(4-(4,4-dimethylpiperidin-1-yl)-5-(4-(4-fluorophenethoxy)phenyl)-6-(2-methoxyethyl)-2-methylpyridin-3-yl)acetic acid] was below 0.1 µM; that for `Cc1nc(CC2CCCCC2)c(-c2ccc(OCCc3ccc(F)cc3)cc2)c(N2CCC(C)(C)CC2)c1[C@H](OC(C)(C)C)C(=O)O` [Example 172, (S)-2-(tert-Butoxy)-2-(6-(cyclohexylmethyl)-4-(4,4-dimethylpiperidin-1-yl)-5-(4-(4-fluorophenethoxy)phenyl)-2-methylpyridin-3-yl)acetic acid] was below 0.1 µM.

Still in this assay, the particulars now being: Human immunodeficiency virus 1, MT2, 120 h, read-out: EC50 μM.
As to `Cc1nc(C(=O)N(C)CC2CCCCC2)c(-c2ccc(OCCc3ccc(F)cc3)cc2)c(N2CCC(C)(C)CC2)c1[C@H](OC(C)(C)C)C(=O)O` [Example 42, (S)-2-(tert-Butoxy)-2-(6-((cyclohexylmethyl)(methyl)carbamoyl)-4-(4,4-dimethylpiperidin-1-yl)-5-(4-(4-fluorophenethoxy)phenyl)-2-methylpyridin-3-yl)acetic acid], the EC50 was 0.004 µM.
Consider `Cc1nc(CO)c(-c2ccc3c(c2)CCN(c2ncnc4c2oc2ccccc24)C3)c(N2CCC(C)(C)CC2)c1[C@H](OC(C)(C)C)C(=O)O` [Example 168, (S)-2-(5-(2-(Benzofuro[3,2-d]pyrimidin-4-yl)-1,2,3,4-tetrahydroisoquinolin-6-yl)-4-(4,4-dimethylpiperidin-1-yl)-6-(hydroxymethyl)-2-methylpyridin-3-yl)-2-(tert-butoxy)acetic acid], for which the EC50 is 0.001 µM.
